# Data reported in patent US20260097047A1, “Small molecule inhibitors of the ribosome biogenesis factor NVL2” (Board of Regents, The University of Texas System, priority 2023, published 2026).
# Like-named read-outs stand apart in the source and are kept apart here.
# How the values were obtained:
# [1] = system: p53 KO and p21 KO HCT116 cells; experiment: Growth competition of p53 or p21 knockout versus control HCT116 cells; type: cell-based, human
# Description: To better understand how inhibition of NVL by MM017 leads to cell death, we performed a genome wide pooled CRISPR/Cas9 knockout screen in HCT116 cells using a library of guide RNAs targeting 19,114 genes. Cells were pulsed intermittently with vehicle or MM017 over 21 days, at which point MM017 treated cells had undergone 9.79 fewer population doublings. Massively parallel sequencing of PCR products amplified from genomic DNA was used to determine relative levels of sgRNA sequences to infer the relative impact of each gene on compound sensitivity. […] To confirm whether p53 and p21 are required for the anti-proliferative activity of MM017, we performed a growth competition experiment between cells expressing ZsGreen with either p53 or p21 knockout (KO) and control cells expressing mCherry. Without treatment, the ratio between green and red cells was unchanged over time.
# HCT116 NVL^R403W cells = experiment: Cell viability counter-screen in compound-resistant HCT116 NVL^R403W cells; type: cell-based, human; settings: Homo sapiens, HCT-116; NVL^R403W knock-in
# Procedure: Design and synthesis of benzothiazepine-based NVL inhibitors. […] Analogs were evaluated against the colorectal cancer cell line HCT116, and counter-screened against a compound resistant NVL2^R403W clone. Cytotoxicity in wild-type HCT116 was determined. […] Initial SAR focused on exploring the replacement of the furan ring of initial dibenzothiazepinone hit MM017. We first explored a wide variety of mono- and di-substituted phenyl rings, including a broad spectrum of functionality (F, Cl, alkyl, alkoxy, fluoroalkoxy, CN, formamide, S(O) Me, carboxyl, . . . ). […]
# (§1) HCT116 cells were transfected with TransIT-LT (Mirus #MIR2304) according to manufacturer's protocol with a guide RNA (either mock or NVL targeting) in the px330 vector (Addgene, #42230), and 10 nM single stranded deoxyoligonucleotide encoding a specific NVL mutation (see below for specific sequences). […] The resulting cells were evaluated by cresyl violet staining or collected and the relevant NVL mutations were analyzed by either amplicon or sanger sequencing.
# (§2) Cell viability assay: In 96-well assay plates (Corning #2903), 2,000 cells were plated per well in 100 μL of medium and allowed to adhere overnight. […] Luminescence (CellTiter-Glo) was recorded using a Synergy 2 microplate reader (BioTek). […]
# HCT116 NVL^P307T cells = experiment: Cell viability in compound-resistant HCT116 NVL^P307T cells; type: cell-based, human; settings: for IC50: Homo sapiens, HCT-116, NVL^P307T
# Description: Assessing the ability of NVL2 inhibitors to selectively kill WT versus NVL2^mut HCT116, block ribosome biogenesis and induce p53. We evaluate analogs in the colorectal cancer cell line HCT116 and already available compound-resistant clones. One clone has a mutation in the compound binding site (NVL2^R403W) and another clone (NVL2^P307T) has a mutation distant from the binding site that confers resistance through an unknown effect. Based on our results, analogs that kill HCT116 cells via NVL2 inhibition (on-target) have reduced potency in compound-resistant HCT116 mutant clones. Our analogs have been counter-screened against the NVL2 compound-resistant mutant clones with fold resistance range between 10-100 fold (most analogs 20-50 fold). This counter screen provides a strategy for identifying off-target toxins.
# From whole exome sequencing, we identified variants that were acquired during IAA-induced mutagenesis with the hypothesis that genes related to resistance will be mutated in multiple clones. Two genes contained acquired variants in at least 3 of the 15 selected clones: TERT, mutated in 3 of 15 clones, and NVL, mutated in all 15 clones. […] In sum, 57 out of 59 unique clones harbored NVL mutations. The majority of mutations clustered within the D1 AAA+ ATPase domain and frequently affecting the same codons. To test whether these mutations are sufficient for MM017 resistance, we used CRISPR-Cas9 to knock-in two of the most resistant mutations (NVL^P307T, NVL^R403W) and a mutation with intermediate resistance (NVL^H304R). Transfection of cells with sgRNAs targeting these NVL residues in addition to a mutation-encoding repair template yielded an increased rate of resistance when compared to mock treatments.
# HCT116 cells were transfected with TransIT-LT (Mirus #MIR2304) according to manufacturer's protocol with a guide RNA (either mock or NVL targeting) in the px330 vector (Addgene, #42230), and 10 nM single stranded deoxyoligonucleotide encoding a specific NVL mutation (see below for specific sequences). 72 hours after transfection, cells were selected by MM017 treatment. The resulting cells were evaluated by cresyl violet staining or collected and the relevant NVL mutations were analyzed by either amplicon or sanger sequencing.
# Cell viability assay: In 96-well assay plates (Corning #2903), 2,000 cells were plated per well in 100 μL of medium and allowed to adhere overnight. The next day, compounds suspended in DMSO were dispensed to the assayed wells using a D300e Digital Dispenser (Tecan). All wells were normalized to 0.5% DMSO. 72 hours after incubation at 37° C. in 5% CO2, cell viability was assayed using an ATP-based luminescent viability assay, CellTiter-Glo (Promega #G8462). Substrate was mixed 1:1 with phosphate-buffered saline (PBS) supplemented with 1% Triton X-100, and 40 μL of this mixture was added to the assay wells. Plates were shaken on a microplate shaker for 10 minutes at room temperature. Luminescence (CellTiter-Glo) was recorded using a Synergy 2 microplate reader (BioTek). In Prism 9 software (GraphPad), ten-point dose response curves were plotted with baseline-correction to the vehicle control well, and IC50 values were calculated by curve fitting using asymmetric (five parameter), least squares fit.
# HCT116 NVL^H304R cells = experiment: Cell viability in HCT116 NVL^H304R knock-in cells; type: cell-based; settings: Homo sapiens, HCT-116
# Description: From whole exome sequencing, we identified variants that were acquired during IAA-induced mutagenesis with the hypothesis that genes related to resistance will be mutated in multiple clones. Two genes contained acquired variants in at least 3 of the 15 selected clones: TERT, mutated in 3 of 15 clones, and NVL, mutated in all 15 clones. […] In sum, 57 out of 59 unique clones harbored NVL mutations. The majority of mutations clustered within the D1 AAA+ ATPase domain and frequently affecting the same codons. […]
# as §1, §2
# HCT116 cells = experiment: Cell viability assay (CellTiter-Glo, 72 hours) in HCT116 human colorectal cancer cells; type: cell-based; settings: for IC50: Homo sapiens, HCT-116
# Outline: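 Ten-point IC50 came from an asymmetric five-parameter fit of luminescence corrected to vehicle wells. ATP content was measured by CellTiter-Glo 72 h after dosing at 37 °C. Cells were seeded at 2,000/well the day before, with 0.5% DMSO in all wells.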
# [2] = Toxicity read-outs in efficacy study (body weight, blood counts, blood chemistry); type: in vivo; settings: 35 mg/kg IP twice a day for 21 days
# Procedure: Having established the kinetics of MM927 mediated NVL inhibition in xenograft tumors, we administered 35 mg/kg MM927 IP twice a day for 21 days to mice harboring tumors derived from either HCT116 NVL wild type or NVL^R403W cells. […] Taken together, we concluded that the potent, and bioavailable analog MM927 reduces tumor growth in mouse xenografts by inhibiting NVL without toxicity.
# Efficacy study: Five million parental HCT116 cells or HCT116 NVL^R403W in a volume of 0.1 mL were implanted in the right flank. Tumor volumes were measured every 2 to 4 days with calipers. Volume is calculated as [(L*W^2)*3.14]/6. When volumes reached ˜110 mm^3, treatment was started with 35 mg/kg MM927 or vehicle control (0.2 mL/mouse) twice a day for 21 days. Mice were euthanized at the end of the 21-day treatment period or when any tumor reached 2 cm in its largest diameter, in agreement with the approved animal protocol. At the end of treatment, blood and tumor tissue were collected for pharmacokinetic analysis, measurement of complete blood counts, and blood chemistry measurements as described. Serum alanine transaminase and blood urea nitrogen were analyzed using VITROS MicroSlide technology.
Compound,enrichment of p53 or p21 KO cells in growth competition [1],IC50 (HCT116 NVL^R403W cells) [µM],resistance of NVL^P307T cells (HCT116 NVL^P307T cells),IC50 (HCT116 NVL^P307T cells) [nM],IC50 (HCT116 NVL^H304R cells) [nM],"IC50 (HCT116 cells; NVL^WT, read-out: IC50) [nM]","body weight, red and white blood cells, hemoglobin, platelets, alanine transaminase, blood urea nitrogen versus vehicle [2]",overt toxicity [2],potency relative to parent compound MM017 (HCT116 cells; HCT116 proliferation),"IC50 (HCT116 cells; read-out: IC50, HCT116 proliferation) [nM]"
COCCN1C(=O)c2ccccc2Sc2cc(NC(=O)c3ccoc3)ccc21 [MM017],dose-dependent enrichment of either p53 or p21 KO cells,> 50,comparatively resistant,> 50000,2400,380,–,–,–,–
"CC#CCN1C(=O)c2ccc(F)cc2Sc2cc(NC(=O)c3ccc4oc(=O)n(C)c4c3)ccc21 [MM927, N-(10-(But-2-yn-1-yl)-3-fluoro-11-oxo-10,11-dihydrodibenzo[b,f][1,4]thiazepin-7-yl)-3-methyl-2-oxo-2,3-dihydrobenzo[d]oxazole-5-carboxamide]",–,–,relatively resistant,1670,–,–,no significant difference,no signs of overt toxicity,five times more potent,79
